SMILES strings stand for the structures.

For two molecules, Activity results are on record in ChEMBL document CHEMBL5678818, “Discovery of potent SOS1 inhibitors that block RAS activation via disruption of the RAS-SOS1 interaction” (Proc Natl Acad Sci U S A, 2019).

Assay [1] concerns the target Serine/threonine-protein kinase pim-3 (Homo sapiens) (UniProt Q86V86). The assay can be described thus: Inhibition of PIM3 (unknown origin) assessed as residual activity at 1000 nM by KINOMEscan analysis relative to control.
Assay [2] deals with Serine/threonine-protein kinase MRCK gamma (Homo sapiens) (UniProt Q6DT37). Briefly: Inhibition of DMPK2 (unknown origin) assessed as residual activity at 1000 nM by KINOMEscan analysis relative to control.
Assay [3] has as its target T1, Dual specificity protein kinase TTK (Homo sapiens) (UniProt P33981).
T1 sequence (whole entry): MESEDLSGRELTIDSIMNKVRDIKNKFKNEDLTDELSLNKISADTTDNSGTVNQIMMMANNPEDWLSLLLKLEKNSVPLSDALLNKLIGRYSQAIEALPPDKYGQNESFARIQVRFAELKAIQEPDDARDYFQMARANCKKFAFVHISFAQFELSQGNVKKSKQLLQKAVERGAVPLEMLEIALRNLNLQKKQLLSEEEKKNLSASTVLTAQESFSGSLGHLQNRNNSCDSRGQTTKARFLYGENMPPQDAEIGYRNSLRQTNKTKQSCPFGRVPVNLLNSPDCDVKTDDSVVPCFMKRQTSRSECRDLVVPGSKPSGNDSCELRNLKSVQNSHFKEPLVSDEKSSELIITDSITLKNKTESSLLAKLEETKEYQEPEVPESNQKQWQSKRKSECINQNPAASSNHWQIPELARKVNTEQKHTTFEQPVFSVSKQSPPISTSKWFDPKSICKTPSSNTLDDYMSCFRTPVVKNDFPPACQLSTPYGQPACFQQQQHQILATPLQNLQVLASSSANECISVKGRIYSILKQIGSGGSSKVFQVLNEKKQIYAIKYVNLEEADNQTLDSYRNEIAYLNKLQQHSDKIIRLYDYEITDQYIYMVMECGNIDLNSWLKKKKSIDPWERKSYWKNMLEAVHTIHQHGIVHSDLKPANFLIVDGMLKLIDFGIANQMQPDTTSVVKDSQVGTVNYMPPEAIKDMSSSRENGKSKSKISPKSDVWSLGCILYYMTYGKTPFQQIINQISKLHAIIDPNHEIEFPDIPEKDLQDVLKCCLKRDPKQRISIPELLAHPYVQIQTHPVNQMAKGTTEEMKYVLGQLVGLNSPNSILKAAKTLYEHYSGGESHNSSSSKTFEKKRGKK
Briefly: Inhibition of TTK (unknown origin) assessed as residual activity at 1000 nM by KINOMEscan analysis relative to control.

The target in assay [4] is Serine/threonine-protein kinase NIM1 (Homo sapiens) (UniProt Q8IY84). Briefly: Inhibition of NIM1 (unknown origin) assessed as residual activity at 1000 nM by KINOMEscan analysis relative to control.
The target of assay [5] is G protein-coupled receptor kinase 4 (Homo sapiens) (UniProt P32298). Briefly: Inhibition of GRK4 (unknown origin) assessed as residual activity at 1000 nM by KINOMEscan analysis relative to control.
Chain of G protein-coupled receptor kinase 4 (Homo sapiens) (P32298 whole entry, looked up, the tested form may be a part): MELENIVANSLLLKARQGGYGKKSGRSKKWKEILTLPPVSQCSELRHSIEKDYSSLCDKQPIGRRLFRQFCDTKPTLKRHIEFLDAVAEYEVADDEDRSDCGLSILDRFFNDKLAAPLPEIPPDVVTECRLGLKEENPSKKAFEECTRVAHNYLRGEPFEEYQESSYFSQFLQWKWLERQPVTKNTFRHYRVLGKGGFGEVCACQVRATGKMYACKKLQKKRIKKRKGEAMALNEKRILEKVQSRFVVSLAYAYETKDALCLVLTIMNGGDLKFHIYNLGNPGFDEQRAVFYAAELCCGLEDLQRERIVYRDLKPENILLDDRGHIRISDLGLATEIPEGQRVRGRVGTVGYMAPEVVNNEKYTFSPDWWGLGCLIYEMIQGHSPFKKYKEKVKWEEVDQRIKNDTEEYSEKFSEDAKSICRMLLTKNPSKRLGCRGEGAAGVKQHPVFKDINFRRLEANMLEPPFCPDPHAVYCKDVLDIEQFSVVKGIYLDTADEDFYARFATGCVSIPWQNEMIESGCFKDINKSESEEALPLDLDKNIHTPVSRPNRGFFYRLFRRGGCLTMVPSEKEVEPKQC
In assay [6] the target is LIM domain kinase 2 (Homo sapiens) (UniProt P53671). Briefly: Inhibition of LIMK2 (unknown origin) assessed as residual activity at 1000 nM by KINOMEscan analysis relative to control.
Assay [7] has as its target T2, MAP kinase-activated protein kinase 5 (Homo sapiens) (UniProt Q8IW41).
T2 sequence (whole entry): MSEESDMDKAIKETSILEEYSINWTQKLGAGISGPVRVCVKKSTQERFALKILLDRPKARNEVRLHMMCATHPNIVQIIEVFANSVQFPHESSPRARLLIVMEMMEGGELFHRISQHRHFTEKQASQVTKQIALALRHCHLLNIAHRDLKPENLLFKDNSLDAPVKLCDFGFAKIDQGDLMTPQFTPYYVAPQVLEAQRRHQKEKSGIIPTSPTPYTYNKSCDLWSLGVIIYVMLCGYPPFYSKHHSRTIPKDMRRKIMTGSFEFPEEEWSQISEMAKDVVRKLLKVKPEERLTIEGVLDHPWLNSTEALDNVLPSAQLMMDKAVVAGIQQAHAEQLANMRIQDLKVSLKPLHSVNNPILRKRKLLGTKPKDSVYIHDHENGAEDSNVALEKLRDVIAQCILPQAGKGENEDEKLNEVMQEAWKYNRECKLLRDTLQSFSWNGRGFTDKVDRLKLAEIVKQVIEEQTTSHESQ
Briefly: Inhibition of MAPKAPK5 (unknown origin) assessed as residual activity at 1000 nM by KINOMEscan analysis relative to control.

Assay [8] concerns the target Eukaryotic translation initiation factor 2-alpha kinase 1 (Homo sapiens) (UniProt Q9BQI3). Briefly: Inhibition of EIF2AK1 (unknown origin) assessed as residual activity at 1000 nM by KINOMEscan analysis relative to control.
Assay [9] concerns Proto-oncogene tyrosine-protein kinase receptor Ret (Homo sapiens), P07949 [V804M]. The assay can be described thus: Inhibition of RET V804M mutant (unknown origin) assessed as residual activity at 1000 nM by KINOMEscan analysis relative to control.
Chain of Proto-oncogene tyrosine-protein kinase receptor Ret (Homo sapiens), P07949 [V804M] (P07949 whole entry V804M): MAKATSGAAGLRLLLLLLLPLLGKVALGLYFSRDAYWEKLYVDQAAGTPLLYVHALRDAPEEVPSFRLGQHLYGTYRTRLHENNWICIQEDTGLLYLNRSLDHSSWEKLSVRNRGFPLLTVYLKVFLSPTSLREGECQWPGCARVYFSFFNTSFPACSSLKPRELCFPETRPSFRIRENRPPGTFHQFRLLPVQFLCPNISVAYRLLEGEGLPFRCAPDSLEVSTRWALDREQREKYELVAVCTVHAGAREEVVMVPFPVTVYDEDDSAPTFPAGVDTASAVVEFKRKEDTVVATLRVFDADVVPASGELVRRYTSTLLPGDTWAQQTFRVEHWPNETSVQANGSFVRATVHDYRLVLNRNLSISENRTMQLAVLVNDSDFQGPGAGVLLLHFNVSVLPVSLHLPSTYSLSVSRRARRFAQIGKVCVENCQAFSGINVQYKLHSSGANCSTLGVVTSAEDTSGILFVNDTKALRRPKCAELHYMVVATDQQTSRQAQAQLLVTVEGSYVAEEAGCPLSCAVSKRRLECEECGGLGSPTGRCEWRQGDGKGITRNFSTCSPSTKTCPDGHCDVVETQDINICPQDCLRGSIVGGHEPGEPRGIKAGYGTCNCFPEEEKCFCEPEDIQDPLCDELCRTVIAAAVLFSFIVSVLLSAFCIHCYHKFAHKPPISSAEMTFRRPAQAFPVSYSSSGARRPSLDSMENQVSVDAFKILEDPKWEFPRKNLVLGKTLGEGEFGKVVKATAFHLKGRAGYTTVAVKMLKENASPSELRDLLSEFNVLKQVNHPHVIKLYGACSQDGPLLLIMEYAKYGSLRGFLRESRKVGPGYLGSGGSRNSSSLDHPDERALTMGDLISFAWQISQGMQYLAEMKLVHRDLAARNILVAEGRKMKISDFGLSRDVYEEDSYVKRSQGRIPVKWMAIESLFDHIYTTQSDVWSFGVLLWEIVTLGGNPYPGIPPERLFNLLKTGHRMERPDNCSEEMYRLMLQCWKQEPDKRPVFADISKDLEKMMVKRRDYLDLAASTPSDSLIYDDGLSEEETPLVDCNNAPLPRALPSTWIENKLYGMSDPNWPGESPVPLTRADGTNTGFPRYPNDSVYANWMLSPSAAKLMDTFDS
The target of assay [10] is TRAF2 and NCK-interacting protein kinase (Homo sapiens) (UniProt Q9UKE5). The assay can be described thus: Inhibition of TNIK (unknown origin) assessed as residual activity at 1000 nM by KINOMEscan analysis relative to control.
Assay [11] concerns the target Proto-oncogene tyrosine-protein kinase ROS (Homo sapiens) (UniProt P08922). The assay can be described thus: Inhibition of ROS1 (unknown origin) assessed as residual activity at 1000 nM by KINOMEscan analysis relative to control.

Chain of Eukaryotic translation initiation factor 2-alpha kinase 1 (Homo sapiens) (Q9BQI3 whole entry): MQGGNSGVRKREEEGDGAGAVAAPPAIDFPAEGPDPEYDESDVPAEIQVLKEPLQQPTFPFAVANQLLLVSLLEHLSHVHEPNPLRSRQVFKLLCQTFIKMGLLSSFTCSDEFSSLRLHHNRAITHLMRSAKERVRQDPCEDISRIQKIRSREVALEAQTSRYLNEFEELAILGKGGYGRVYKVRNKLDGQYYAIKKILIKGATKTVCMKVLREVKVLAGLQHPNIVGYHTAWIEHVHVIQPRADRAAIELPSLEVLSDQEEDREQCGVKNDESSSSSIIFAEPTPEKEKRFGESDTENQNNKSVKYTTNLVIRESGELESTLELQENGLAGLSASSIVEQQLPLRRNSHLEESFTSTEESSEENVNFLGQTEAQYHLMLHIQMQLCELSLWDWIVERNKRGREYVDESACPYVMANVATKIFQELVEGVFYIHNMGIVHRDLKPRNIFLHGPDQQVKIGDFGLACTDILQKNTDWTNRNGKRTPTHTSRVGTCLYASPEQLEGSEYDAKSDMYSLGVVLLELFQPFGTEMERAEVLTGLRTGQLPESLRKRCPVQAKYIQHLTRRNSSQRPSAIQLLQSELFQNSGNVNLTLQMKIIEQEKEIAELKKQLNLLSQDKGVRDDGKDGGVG
Chain of Proto-oncogene tyrosine-protein kinase ROS (Homo sapiens) (P08922 whole entry): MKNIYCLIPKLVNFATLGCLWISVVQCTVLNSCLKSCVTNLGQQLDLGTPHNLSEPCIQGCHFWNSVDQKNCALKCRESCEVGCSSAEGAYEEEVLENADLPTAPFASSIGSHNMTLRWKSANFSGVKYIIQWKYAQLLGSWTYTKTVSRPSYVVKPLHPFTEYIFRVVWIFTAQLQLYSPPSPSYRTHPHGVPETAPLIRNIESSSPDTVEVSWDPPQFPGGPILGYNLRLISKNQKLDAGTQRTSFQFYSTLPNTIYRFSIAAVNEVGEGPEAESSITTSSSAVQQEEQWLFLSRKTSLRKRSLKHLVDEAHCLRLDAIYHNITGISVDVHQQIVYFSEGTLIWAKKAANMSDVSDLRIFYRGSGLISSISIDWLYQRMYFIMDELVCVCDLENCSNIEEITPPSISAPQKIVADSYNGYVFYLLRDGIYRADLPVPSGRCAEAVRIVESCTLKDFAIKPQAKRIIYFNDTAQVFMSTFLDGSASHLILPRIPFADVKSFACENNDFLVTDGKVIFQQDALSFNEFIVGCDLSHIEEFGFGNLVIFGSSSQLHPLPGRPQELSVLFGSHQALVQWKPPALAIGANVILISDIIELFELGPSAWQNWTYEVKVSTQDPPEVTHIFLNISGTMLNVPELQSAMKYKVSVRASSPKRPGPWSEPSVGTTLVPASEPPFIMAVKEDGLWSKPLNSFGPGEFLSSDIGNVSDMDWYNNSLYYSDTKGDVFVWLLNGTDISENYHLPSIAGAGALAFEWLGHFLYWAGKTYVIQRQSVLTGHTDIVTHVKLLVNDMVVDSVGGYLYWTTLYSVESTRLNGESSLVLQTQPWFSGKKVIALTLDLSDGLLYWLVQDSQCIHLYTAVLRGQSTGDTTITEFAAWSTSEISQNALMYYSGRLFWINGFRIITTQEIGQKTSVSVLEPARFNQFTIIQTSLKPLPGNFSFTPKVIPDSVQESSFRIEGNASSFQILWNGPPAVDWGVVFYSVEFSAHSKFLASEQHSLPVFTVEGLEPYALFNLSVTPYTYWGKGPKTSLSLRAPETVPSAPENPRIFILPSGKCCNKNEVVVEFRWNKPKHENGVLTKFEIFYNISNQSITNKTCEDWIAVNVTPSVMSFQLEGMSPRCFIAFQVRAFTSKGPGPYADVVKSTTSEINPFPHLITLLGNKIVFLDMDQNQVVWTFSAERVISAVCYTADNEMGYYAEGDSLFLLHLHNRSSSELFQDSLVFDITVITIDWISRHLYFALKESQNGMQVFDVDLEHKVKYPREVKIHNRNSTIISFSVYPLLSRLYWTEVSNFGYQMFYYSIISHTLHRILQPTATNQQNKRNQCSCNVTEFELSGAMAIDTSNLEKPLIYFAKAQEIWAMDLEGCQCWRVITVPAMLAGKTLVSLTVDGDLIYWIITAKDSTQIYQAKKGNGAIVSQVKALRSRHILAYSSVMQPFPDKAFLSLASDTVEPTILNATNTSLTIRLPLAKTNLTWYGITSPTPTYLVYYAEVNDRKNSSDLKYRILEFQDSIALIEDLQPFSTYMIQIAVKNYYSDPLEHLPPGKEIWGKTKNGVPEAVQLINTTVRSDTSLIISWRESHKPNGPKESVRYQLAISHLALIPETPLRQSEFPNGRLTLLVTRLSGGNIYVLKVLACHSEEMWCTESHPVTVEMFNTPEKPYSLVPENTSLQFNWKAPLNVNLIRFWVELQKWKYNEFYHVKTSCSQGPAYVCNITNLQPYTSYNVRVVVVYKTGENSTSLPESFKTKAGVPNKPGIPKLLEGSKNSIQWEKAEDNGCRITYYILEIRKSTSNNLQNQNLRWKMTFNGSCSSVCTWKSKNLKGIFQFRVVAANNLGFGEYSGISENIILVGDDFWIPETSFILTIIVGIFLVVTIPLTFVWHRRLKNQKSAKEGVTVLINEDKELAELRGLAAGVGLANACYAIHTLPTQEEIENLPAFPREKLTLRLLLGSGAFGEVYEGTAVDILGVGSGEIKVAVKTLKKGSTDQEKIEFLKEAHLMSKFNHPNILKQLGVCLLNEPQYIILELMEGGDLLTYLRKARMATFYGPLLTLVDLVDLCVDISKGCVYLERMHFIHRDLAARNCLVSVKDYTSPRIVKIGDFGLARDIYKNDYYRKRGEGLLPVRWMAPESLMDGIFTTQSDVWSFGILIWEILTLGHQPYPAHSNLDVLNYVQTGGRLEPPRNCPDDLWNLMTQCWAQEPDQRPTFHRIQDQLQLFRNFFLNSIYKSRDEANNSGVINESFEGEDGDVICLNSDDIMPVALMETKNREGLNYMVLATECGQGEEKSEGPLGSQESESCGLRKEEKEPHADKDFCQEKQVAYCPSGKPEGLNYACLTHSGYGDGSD

As for `COc1cc2ncnc(N[C@H](C)c3cccc4ccccc34)c2cc1OC`, the Activity stood at 100% in assay [1]; 93% in assay [2]; 95% in assay [3]; 78% in [4]; 100% in assay [5]; 92% in assay [6]. Further, the Activity in [7] came out at 87%; in [8], 88%; in assay [9] it was 100%; in [10], 100%; in assay [11], 90%.

Turning to `COc1cc2nc(C)nc(N[C@H](C)c3cccc(-c4cn[nH]c4)c3)c2cc1OC`, the Activity in assay [1] amounted to 90%; in assay [2], 100%; in assay [3], 78%; in assay [4], 88%; in [5], 95%; in assay [6], 100%. Also, the Activity in assay [7] came out at 85%; in assay [8], 100%; in [9], 92%; in assay [10], 87%; in [11] it was 100%.
